Source: PMC9309146 (Advances in Therapy, 2022)
Like-named read-outs stand apart in the source and are kept apart here.

Experiments:
Exposure-safety analysis = type: in vivo, human; details: logistic regression
[1] = legacy popPK analysis ref 20; cited from earlier work
[2] = MURANO popPK evaluation ref 24; cited from earlier work
Population PK = type: in vivo, human

SMILES: CC1(C)CCC(CN2CCN(c3ccc(C(=O)NS(=O)(=O)c4ccc(NCC5CCOCC5)c([N+](=O)[O-])c4)c(Oc4cnc5[nH]ccc5c4)c3)CC2)=C(c2ccc(Cl)cc2)C1 [venetoclax]
- p value, association of CmeanSS,nominal with probability of SAEs (Exposure-safety analysis): 0.214
- p value, association of CmeanSS,nominal with probability of grade ≥ 3 infections (Exposure-safety analysis): 0.149
- rituximab co-administration effect: increase in CL/F [1]: 22%
- rituximab co-administration effect: decrease in CL/F [2]: 7%
- rituximab co-administration effect: increase in CL/F (Population PK; current analysis): 7%
- increase in F1 (Population PK; dose decrease from 400 to 200 mg): 11.0%
- decrease in F1 (Population PK; dose increase from 400 to 800 mg): 9.9%
- decrease in F1 (Population PK; fasting state relative to low-fat state): 66.2%
- V2/F lower (Population PK; females than males): 29.7%
- effect of obinutuzumab co-administration on CL/F and F1 (Population PK; forward addition covariate testing): no effect
- increase in F1 (Population PK; high-fat meal relative to low-fat): 44.3%
- relationship between CL/F and body weight, age, gender, mild or moderate hepatic or renal impairment, CrCL, bilirubin, ALT, AST, albumin, P-glycoprotein or weak CYP3A inhibitors (Population PK; human, in vivo): no relationship was observed
- increase in F1 (Population PK; meal-fed state without specification of fat content): 28.9%
- increase in F1 (Population PK; moderate-fat meal relative to low-fat): 40.4%
- V2/F higher (Population PK; patients compared with healthy individuals): 73.3%
- decrease in CL/F (Population PK; with OATP1B3 hepatic uptake transporter inhibitors): 13.6%
- decrease in CL/F (Population PK; with moderate CYP3A inhibitors): 13.9%
- decrease in CL/F (Population PK; with strong CYP3A inhibitors): 82.2%
